From patent publication US8268814B2, “Substituted sulfonamide compounds” (Gruenenthal GmbH, priority 2008, dated 2012)

Target: T1, B1R receptor of the rat (rB1R) (Rattus norvegicus, UniProt P97583)
T1 construct: expressed in transfected cells; host or cells: CHO K1 cells (Chinese hamster ovary), stably transfected
T1 sequence (P97583 1-337): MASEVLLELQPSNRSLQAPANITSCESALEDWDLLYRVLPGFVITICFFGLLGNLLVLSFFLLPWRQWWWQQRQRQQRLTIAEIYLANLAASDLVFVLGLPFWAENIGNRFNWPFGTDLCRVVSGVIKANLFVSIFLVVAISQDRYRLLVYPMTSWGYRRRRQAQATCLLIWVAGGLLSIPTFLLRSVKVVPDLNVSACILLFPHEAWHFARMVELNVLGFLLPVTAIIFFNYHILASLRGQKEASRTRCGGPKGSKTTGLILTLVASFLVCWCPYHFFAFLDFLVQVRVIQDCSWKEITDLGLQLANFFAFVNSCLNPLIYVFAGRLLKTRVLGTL
Assay: Functional FLIPR Ca2+ assay on the bradykinin 1 receptor, rat (rB1R CHO K1 cells)
Type: cell-based
Settings: test substance 10 μM; CHO K1 cells transfected with rat B1R gene; agonist Des-Arg9-bradykinin at EC80; % inhibition compared with maximum achievable inhibition; read-out: B1R antagonism, rat [10 μM] % inhibition
Description: The agonistic or antagonistic action of substances can be quantified on the bradykinin 1 receptor (B1R) of the human and rat species with ectopically expressing cell lines (CHO K1 cells) and with the aid of a Ca^2+-sensitive dyestuff (Fluo-4) in a fluorescent imaging plate reader (FLIPR). The figure in % activation is based on the Ca^2+ signal after addition of Lys-Des-Arg^9-bradykinin (0.5 nM) or Des-Arg^9-bradykinin (100 nM). Antagonists lead to a suppression of the Ca^2+ inflow after addition of the agonist. % inhibition compared with the maximum achievable inhibition is stated.
The agonistic or antagonistic action of substances can be determined on the bradykinin 1 receptor (B1R) of the human and rat species with the following assay. In accordance with this assay, the Ca^2+ inflow through the channel is quantified with the aid of a Ca^2+-sensitive dyestuff (type Fluo-4, Molecular Probes Europe BV, Leiden, Holland) in a fluorescent imaging plate reader (FLIPR, Molecular Devices, Sunnyvale, USA).
Chinese hamster ovary cells (CHO K1 cells) transfected stably with the human B1R gene (hB1R cells) or the B1R gene of the rat (rB1R cells) are used. For functional studies, these cells are plated out on black 96-well plates with a clear base (BD Biosciences, Heidelberg, Germany or Greiner, Frickenhausen, Germany) in a density of 20,000-35,000 cells/well. The cells are left overnight at 37° C. and 5% CO2 in culture medium (hB1R cells: Nutrient Mixture Ham's F12, Gibco Invitrogen GmbH, Karlsruhe, Germany or DMEM, Sigma-Aldrich, Taufkirchen, Germany; rB1R cells: D-MEM/F12, Gibco Invitrogen GmbH, Karlsruhe, Germany) with 10 vol. % FBS (foetal bovine serum, Gibco Invitrogen GmbH, Karlsruhe, Germany or PAN Biotech GmbH, Aidenbach, Germany). On the following day, the cells are loaded for 60 min at 37° C. with 2.13 μM Fluo-4 (Molecular Probes Europe BV, Leiden, Holland) in HBSS buffer (Hank's buffered saline solution, Gibco Invitrogen GmbH, Karlsruhe, Germany) with 2.5 mM probenecid (Sigma-Aldrich, Taufkirchen, Germany) and 10 mM HEPES (Sigma-Aldrich, Taufkirchen, Germany). The plates are then washed 2× with HBSS buffer, and HBSS buffer which additionally contains 0.1% BSA (bovine serum albumin; Sigma-Aldrich, Taufkirchen, Germany), 5.6 mM glucose and 0.05% gelatine (Merck KgaA, Darmstadt, Germany) is added. After a further incubation of 20 minutes at room temperature, the plates are inserted into the FLIPR for the Ca^2+ measurement.
Alternatively, the plates are washed with buffer A (15 mM HEPES, 80 mM NaCl, 5 mM KCl, 1.2 mM CaCl2, 0.7 mM MgSO4, 2 g/l glucose, 2.5 mM probenecid), buffer A is added and the plates are loaded with 2.5 μM Fluo-4 and 0.025% Pluronic F127 (Sigma-Aldrich, Taufkirchen, Germany). Thereafter, the cells are washed 2× with buffer A and incubated for 30 minutes with buffer A, which additionally contains 0.05% BSA and 0.05% gelatine, at room temperature and thereafter inserted into the FLIPR for the Ca^2+ measurement. The Ca^2+-dependent fluorescence is measured here before and after addition of substances (λex=488 nm, λem=540 nm). Quantification is by measurement of the highest fluorescence intensity (FC, fluorescence counts) over time.
The FLIPR protocol consists of 2 additions of substance. Test substances (10 μM) are first pipetted on to the cells and the Ca^2+ inflow is compared with the control (hB1R: Lys-Des-Arg^9-bradykinin >=50 nM; rB1R: Des-Arg^9-bradykinin 10 μM). This gives the figure in % activation based on the Ca^2+ signal after addition of Lys-Des-Arg^9-bradykinin (>=50 nM) or Des-Arg^9-bradykinin (10 μM). After incubation for 10-20 minutes, Lys-Des-Arg^9-bradykinin (hB1R) or Des-Arg^9-bradykinin (rB1R) in the concentration of the EC80 is applied and the inflow of Ca^2+ is likewise determined. Antagonists lead to a suppression of the Ca^2+ inflow. % inhibition compared with the maximum achievable inhibition is calculated. In order to determine the IC50 value, the substances are added in various concentrations. […]

## COc1cc(C)c(S(=O)(=O)N(CCOCC(=O)N2CCc3[nH]cnc3C2c2ccccc2)Cc2ccccc2)c(C)c1 (centres unmarked) [Example 82, N-Benzyl-4-Methoxy-2,6-dimethyl-N-[2-[2-oxo-2-(4-phenyl-4,5,6,7-tetrahydro-1H-imidazo[4,5-c]pyridin-5-yl)-ethoxy]-ethyl]-benzenesulfonic acid amide]
  inhibition at 10 µM: 100%

## O=C(CCCC1CCCCN1S(=O)(=O)c1cccc2ccccc12)N1CCc2[nH]cnc2C1c1ccccc1 (centres unmarked) [Example 74, 4-[1-(Naphthalen-1-ylsulfonyl)-piperidin-2-yl]-1-(4-phenyl-4,5,6,7-tetrahydro-1H-imidazo[4,5-c]pyridin-5-yl)-butan-1-one]
  inhibition at 10 µM: 95%

## O=C(CCCC1CCCCN1S(=O)(=O)c1ccccc1C(F)(F)F)N1CCc2[nH]cnc2C1c1ccccc1 (centres unmarked) [Example 88, 1-(4-Phenyl-4,5,6,7-tetrahydro-1H-imidazo[4,5-c]pyridin-5-yl)-4-[1-[[2-(trifluoromethyl)-phenyl]sulfonyl]-piperidin-2-yl]-butan-1-one]
  inhibition at 10 µM: 65%

## CN1CCN(Cc2cc3c(s2)CCN(C(=O)CCCC2CCCCN2S(=O)(=O)c2cccc4ccccc24)C3)CC1 (centres unmarked) [Example 73, 1-[2-[(4-Methyl-piperazin-1-yl)-methyl]-4,5,6,7-tetrahydro-thieno[3,2-c]pyridin-5-yl]-4-[1-(naphthalen-1-ylsulfonyl)-piperidin-2-yl]-butan-1-one]
  inhibition at 10 µM: 99%

## O=C(COCC1COc2ccccc2N1S(=O)(=O)c1ccccc1C(F)(F)F)N1CCc2[nH]cnc2C1c1ccccc1 (centres unmarked) [Example 94, 1-(4-Phenyl-4,5,6,7-tetrahydro-1H-imidazo[4,5-c]pyridin-5-yl)-2-[[4-[[2-(trifluoromethyl)-phenyl]sulfonyl]-3,4-dihydro-2H-[1,4]benzoxazin-3-yl]-methoxy]-ethanone]
  inhibition at 10 µM: 36%

## COc1cc(C)c(S(=O)(=O)N2CCCCC2COCCC(=O)N2CCc3[nH]cnc3C2c2ccccc2)c(C)c1 (centres unmarked) [Example 100, 3-[[1-[(4-Methoxy-2,6-dimethyl-phenyl)sulfonyl]-piperidin-2-yl]-methoxy]-1-(4-phenyl-4,5,6,7-tetrahydro-1H-imidazo[4,5-c]pyridin-5-yl)-propan-1-one]
  inhibition at 10 µM: 101%

## O=C(COCC1CCCCN1S(=O)(=O)c1ccccc1C(F)(F)F)N1CCc2[nH]cnc2C1c1ccccc1 (centres unmarked) [Example 98, 1-(4-Phenyl-4,5,6,7-tetrahydro-1H-imidazo[4,5-c]pyridin-5-yl)-2-[[1-[[2-(trifluoromethyl)-phenyl]sulfonyl]-piperidin-2-yl]-methoxy]-ethanone]
  inhibition at 10 µM: 98%

## CN1CCN(Cc2cc3c(s2)CCN(C(=O)CCCC2CCCCN2S(=O)(=O)c2ccccc2C(F)(F)F)C3)CC1 (centres unmarked) [Example 87, 1-[2-[(4-Methyl-piperazin-1-yl)-methyl]-4,5,6,7-tetrahydro-thieno[3,2-c]pyridin-5-yl]-4-[1-[[2-(trifluoromethyl)-phenyl]sulfonyl]-piperidin-2-yl]-butan-1-one]
  inhibition at 10 µM: 103%

## COc1cc(C)c(S(=O)(=O)N2c3ccccc3CCC2COCC(=O)N2CCc3[nH]cnc3C2c2ccccc2)c(C)c1 (centres unmarked) [Example 86, 2-[[1-[(4-Methoxy-2,6-dimethyl-phenyl)sulfonyl]-1,2,3,4-tetrahydro-quinolin-2-yl]-methoxy]-1-(4-phenyl-4,5,6,7-tetrahydro-1H-imidazo[4,5-c]pyridin-5-yl)-ethanone]
  inhibition at 10 µM: 96%

## COc1cc(C)c(S(=O)(=O)N2c3ccccc3CCC2COCC(=O)N2CCc3sc(CN4CCN(C)CC4)cc3C2)c(C)c1 (centres unmarked) [Example 85, 2-[[1-[(4-Methoxy-2,6-dimethyl-phenyl)sulfonyl]-1,2,3,4-tetrahydro-quinolin-2-yl]-methoxy]-1-[2-[(4-methyl-piperazin-1-yl)-methyl]-4,5,6,7-tetrahydro-thieno[3,2-c]pyridin-5-yl]-ethanone]
  inhibition at 10 µM: 102%

## COc1cc(C)c(S(=O)(=O)N2CCCCC2CCCC(=O)N2CCc3[nH]cnc3C2c2ccccc2)c(C)c1 (centres unmarked) [Example 71, 4-[1-[(4-Methoxy-2,6-dimethyl-phenyl)sulfonyl]-piperidin-2-yl]-1-(4-phenyl-4,5,6,7-tetrahydro-1H-imidazo[4,5-c]pyridin-5-yl)-butan-1-one]
  inhibition at 10 µM: 101%

## O=C(CCCC1CCCCN1S(=O)(=O)c1ccc2ccccc2c1)N1CCc2[nH]cnc2C1c1ccccc1 (centres unmarked) [Example 76, 4-[1-(Naphthalen-2-ylsulfonyl)-piperidin-2-yl]-1-(4-phenyl-4,5,6,7-tetrahydro-1H-imidazo[4,5-c]pyridin-5-yl)-butan-1-one]
  inhibition at 10 µM: 48%

## COc1cc(C)c(S(=O)(=O)N(C)CCOCC(=O)N2CCc3sc(CN4CCN(C)CC4)cc3C2)c(C)c1C [Example 95, 4-Methoxy-N,2,3,6-tetramethyl-N-[2-[2-[2-[(4-methyl-piperazin-1-yl)-methyl]-4,5,6,7-tetrahydro-thieno[3,2-c]pyridin-5-yl]-2-oxo-ethoxy]-ethyl]-benzenesulfonic acid amide]
  inhibition at 10 µM: 99%

## CN1CCN(Cc2cc3c(s2)CCN(C(=O)CCCC2CCCCN2S(=O)(=O)c2ccc4ccccc4c2)C3)CC1 (centres unmarked) [Example 75, 1-[2-[(4-Methyl-piperazin-1-yl)-methyl]-4,5,6,7-tetrahydro-thieno[3,2-c]pyridin-5-yl]-4-[1-(naphthalen-2-ylsulfonyl)-piperidin-2-yl]-butan-1-one]
  inhibition at 10 µM: 103%

## COc1cc(C)c(S(=O)(=O)N(C)CCOCC(=O)N2CCc3[nH]cnc3C2c2ccccc2)c(C)c1C (centres unmarked) [Example 96, 4-Methoxy-N,2,3,6-tetramethyl-N-[2-[2-oxo-2-(4-phenyl-4,5,6,7-tetrahydro-1H-imidazo[4,5-c]pyridin-5-yl)-ethoxy]-ethyl]-benzenesulfonic acid amide]
  inhibition at 10 µM: 54%

## Cc1cc(S(=O)(=O)N2CCCCC2CCC(=O)N2CCc3onc(C(=O)N4CCCCC4)c3C2)c(C)cc1Cl (centres unmarked) [Example 04, 3-(1-(4-chloro-2,5-dimethylphenylsulfonyl)piperidin-2-yl)-1-(3-(piperidine-1-carbonyl)-6,7-dihydroisoxazolo[4,5-c]pyridin-5(4H)-yl)propan-1-one]
  inhibition at 10 µM: 56%

## CN1CCN(Cc2cc3c(s2)CCN(C(=O)COCC2COc4ccccc4N2S(=O)(=O)c2ccccc2C(F)(F)F)C3)CC1 (centres unmarked) [Example 93, 1-[2-[(4-Methyl-piperazin-1-yl)-methyl]-4,5,6,7-tetrahydro-thieno[3,2-c]pyridin-5-yl]-2-[[4-[[2-(trifluoromethyl)-phenyl]sulfonyl]-3,4-dihydro-2H-[1,4]benzoxazin-3-yl]-methoxy]-ethanone]
  inhibition at 10 µM: 93%
